Data as given in patent US20240150293A1, “SPIROCYCLOHEXANE DERIVATIVES, PHARMACEUTICAL COMPOSITIONS CONTAINING THEM AND THEIR USES AS ANTI-APOPTOTIC INHIBITORS” (LES LABORATOIRES SERVIER, priority 2021, published 2024).

test system: H929 multiple myeloma tumor line; test: In vitro cytotoxicity, MTT assay (Example B, Method A); type: cell-based; settings: H929 cells, 48 hours exposure, read-out: C50
Description: The cytotoxicity studies were carried out on the H929 multiple myeloma tumor line.
The cells are distributed onto microplates and exposed to the test compounds for 48 hours. The cell viability is then quantified by a colorimetric assay, the Microculture Tetrazolium Assay (Carmichael et al, Cancer Res. 1987, 47, 939-942).
The results are expressed in C50 which means concentration corresponding to […] of effect/inhibition.

Row | Structure (SMILES) | IC50
1 | CC(C)C(COc1ccnc2ccsc12)CC1Cc2ccccc2[C@]12CC[C@@](Nc1cccc(Cl)c1)(C(=O)O)CC2 (single isomer, unassigned) [Example 524, (1r,4r)-4-(3-chloroanilino)-2′-(3-methyl-2-{[(thieno[3,2-b]pyridin-7-yl)oxy]methyl}butyl)-2′,3′-dihydrospiro[cyclohexane-1,1′-indene]-4-carboxylic acid] | 30000 nM
2 | CC(C)C(COc1ccnc2ccsc12)CC1Cc2ccccc2[C@]12CC[C@@](Nc1cccc(Cl)c1)(C(=O)O)CC2 (single isomer, unassigned) [Example 523, (1r,4r)-4-(3-chloroanilino)-2′-(3-methyl-2-{[(thieno[3,2-b]pyridin-7-yl)oxy]methyl}butyl)-2′,3′-dihydrospiro[cyclohexane-1,1′-indene]-4-carboxylic acid] | 16400 nM

same assay, conditions: Homo sapiens, NCI-H929, 48 h, H929 cells, 48 hours exposure, read-out: C50

Row | Structure (SMILES) | IC50
3 | CCC1CC(O)c2nccc(OC[C@H](C)C[C@H]3Cc4ccccc4[C@]34CC[C@@](Nc3cccc(Cl)c3)(C(=O)O)CC4)c21 (stereo partly drawn) [Example 624, (1r,2′S,4S)-4-(3-chloroanilino)-2′-{(2R)-3-[(5-ethyl-7-hydroxy-6,7-dihydro-5H-cyclopenta[b]pyridin-4-yl)oxy]-2-methylpropyl}-2′,3′-dihydrospiro[cyclohexane-1,1′-indene]-4-carboxylic acid] | 525 nM
4 | C[C@@H](COc1cccc2ncsc12)C[C@H]1Cc2ccccc2[C@]12CC[C@@](Nc1cccc(Cl)c1)(C(=O)O)CC2 [Example 625, (1r,2′S,4S)-2′-{(2R)-3-[(1,3-benzothiazol-7-yl)oxy]-2-methylpropyl}-4-(3-chloroanilino)-2′,3′-dihydrospiro[cyclohexane-1,1′-indene]-4-carboxylic acid] | 6590 nM
5 | C[C@@H](COc1ccnc2[nH]ccc12)C[C@H]1Cc2ccccc2[C@]12CC[C@@](Nc1cccc(Cl)c1)(C(=O)O)CC2 [Example 626, (1r,2′S,4S)-4-(3-chloroanilino)-2′-{(2R)-2-methyl-3-[(1H-pyrrolo[2,3-b]pyridin-4-yl)oxy]propyl}-2′,3′-dihydrospiro[cyclohexane-1,1′-indene]-4-carboxylic acid] | 540 nM

target: Cy5-labelled Mcl1 (amino acids 171-321) C286S protein (UniProtKB Q07820) (Homo sapiens (Human), UniProt Q07820, C286S); test: Inhibition of Mcl-1 by the fluorescence quenching assay (Example A, Method B); type: binding; settings: not given
Sequence (Q07820 171-321 C286S): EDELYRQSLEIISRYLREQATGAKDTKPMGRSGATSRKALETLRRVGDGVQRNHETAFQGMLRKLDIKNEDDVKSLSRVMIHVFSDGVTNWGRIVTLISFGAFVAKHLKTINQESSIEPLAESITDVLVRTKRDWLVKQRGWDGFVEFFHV
Description: Fluorescence quenching assay measures the change fluorescence intensity of C-terminally Cy5-labelled Mcl1 (amino acids 171-321) C286S protein (UniProtKB® primary accession number Q07820) having an amino acid sequence:
which is linked at the C-terminus to the amino acid X which corresponds to a cysteine labelled on the sulfur with sulpho-Cyanine5 from Lumiprobe GmbH catalogue number 13380, upon binding of a C-terminally labelled peptide derived from PUMA (UniProtKB® primary accession number Q9BXH1) having an amino acid sequence:
which is linked at the C-terminus to the amino acid X′, where X′ is cysteine labelled on the sulfur with TQ5WS from AAT Bioquest catalogue number 2079.
The addition of a compound which binds competitively to the same site as the peptide will result in an increase in the fluorescence intensity of the protein due to displacement of the fluorescence quencher.
An 11-point serial dilution of each compound was prepared in DMSO, the final buffer conditions were 10 mM 4-(2-hydroxyethyl)-1-piperazineethanesulfonic acid [HEPES], 150 mM NaCl, 0.05% Tween 20, pH 7.4 and 5% DMSO. The final protein concentration in the assay was 1 nM with the peptide present at 10, 20 or 400 nM. The experiments were incubated for 2 hours at room temperature before fluorescence intensity was measured on a Biotek SynergyNeo plate reader (Excitation 620 nm, emission 680 nm). The dose response curves were plotted with XL-Fit software using a 4-Parameter Logistic Model (Sigmoidal DoseResponse Model) and the inhibitory concentrations that gave a 50% increase in fluorescence intensity was determined (IC50). The Ki values were determined from the IC50 values according to Cer et al, Nucleic Acids Res, 2009, 37 (WebServer issue): W441-W445. Inhibition constants (Ki) are determined from complete binding inhibition curves (cKi) or from estimated from incomplete binding inhibition curves (eKi) in most cases due to low activity.

Row | Ki | Structure (SMILES)
6 | 221 nM | C[C@@H](CNc1ccncc1)C[C@@H]1Cc2ccccc2[C@]12CC[C@@](Nc1cccc(Cl)c1)(C(=O)O)CC2 [Example 574, (1r,2′R,4R)-4-(3-chloroanilino)-2′-{(2R)-2-methyl-3-[(pyridin-4-yl)amino]propyl}-2′,3′-dihydrospiro[cyclohexane-1,1′-indene]-4-carboxylic acid]
7 | 2.68 nM | CCc1cnccc1OC[C@H](C)C[C@H]1Cc2ccccc2[C@]12CC[C@@](Nc1cccc(Cl)c1)(C(=O)O)CC2 [Example 588, (1r,2′S,4S)-4-(3-chloroanilino)-2′-{(2R)-3-[(3-ethylpyridin-4-yl)oxy]-2-methylpropyl}-2′,3′-dihydrospiro[cyclohexane-1,1′-indene]-4-carboxylic acid]
8 | 27.9 nM | O=C(O)[C@]1(Nc2cccc(Cl)c2)CC[C@@]2(CC1)c1ccccc1CC2CC(COc1ccnc2c1CCCC2)C(F)F (single isomer, unassigned) [Example 513, (1r,4r)-4-(3-chloroanilino)-2′-(3,3-difluoro-2-{[(5,6,7,8-tetrahydroquinolin-4-yl)oxy]methyl}propyl)-2′,3′-dihydrospiro[cyclohexane-1,1′-indene]-4-carboxylic acid]
9 | 2.8 nM | CC1CCN(C)c2nccc(OC[C@H](C)C[C@H]3Cc4ccccc4[C@]34CC[C@@](Nc3cccc(Cl)c3)(C(=O)O)CC4)c21 (single isomer, unassigned) [Example 644]
10 | 44.1 nM | C[C@@H](COc1cccc2[nH]ccc12)CC1Cc2ccccc2[C@]12CC[C@@](Nc1cccc(Cl)c1)(C(=O)O)CC2 (stereo partly drawn) [Example 594, (1r,4R)-4-(3-chloroanilino)-2′-{(2R)-3-[(1H-indol-4-yl)oxy]-2-methylpropyl}-2′,3′-dihydrospiro[cyclohexane-1,1′-indene]-4-carboxylic acid]
11 | 93.5 nM | CC(CC1Cc2ccccc2[C@]12CC[C@@](Nc1cccc(Cl)c1)(C(=O)O)CC2)C(C)Oc1ccnc2c1CCC2 (single isomer, unassigned) [Example 617, (1r,4r)-4-(3-chloroanilino)-2′-{3-[(6,7-dihydro-5H-cyclopenta[b]pyridin-4-yl)oxy]-2-methylbutyl}-2′,3′-dihydrospiro[cyclohexane-1,1′-indene]-4-carboxylic acid]
12 | 29.9 nM | O=C(O)[C@]1(Nc2cccc(Cl)c2)CC[C@@]2(CC1)c1ccccc1CC2CC(F)COc1ccnc2c1CCC2 (mixture of isomers) [Example 504, (1r,4r)-4-(3-chloroanilino)-2′-{3-[(6,7-dihydro-5H-cyclopenta[b]pyridin-4-yl)oxy]-2-fluoropropyl}-2′,3′-dihydrospiro[cyclohexane-1,1′-indene]-4-carboxylic acid]
13 | 152 nM | Cc1cc(OCCC[C@H]2Cc3ccccc3[C@]23CC[C@@](Nc2cccc(Cl)c2)(C(=O)O)CC3)c2cc[nH]c2c1 [Example 488, (1r,2′S,4S)-4-(3-chloroanilino)-2′-{3-[(6-methyl-1H-indol-4-yl)oxy]propyl}-2′,3′-dihydrospiro[cyclohexane-1,1′-indene]-4-carboxylic acid]
14 | 123 nM | CC(CC1Cc2ccccc2[C@]12CC[C@@](Nc1cccc(Cl)c1)(C(=O)O)CC2)C(C)Oc1ccnc2c1CCC2 (single isomer, unassigned) [Example 614, (1r,4r)-4-(3-chloroanilino)-2′-{3-[(6,7-dihydro-5H-cyclopenta[b]pyridin-4-yl)oxy]-2-methylbutyl}-2′,3′-dihydrospiro[cyclohexane-1,1′-indene]-4-carboxylic acid]
15 | 65.3 nM | Cc1cc(C(C)O)cc2c1CC(C[C@@H](C)COc1ccnc3c1[C@H](C)CCC3)[C@]21CC[C@](Nc2cccc(Cl)c2)(C(=O)O)CC1 (stereo partly drawn) [Example 761, (1r,4R)-4-(3-chloroanilino)-6′-(1-hydroxyethyl)-4′-methyl-2′-[(2R)-2-methyl-3-{[(5R)-5-methyl-5,6,7,8-tetrahydroquinolin-4-yl]oxy}propyl]-2′,3′-dihydrospiro[cyclohexane-1,1′-indene]-4-carboxylic acid]
16 | 1.8 nM | O=C(O)[C@]1(Nc2cccc(Cl)c2)CC[C@@]2(CC1)c1ccccc1CC2CC(COCCN1CCOCC1)COc1ccnc2c1CCC2 (mixture of isomers) [Example 496, (1r,4r)-4-(3-chloroanilino)-2′-(2-{[(6,7-dihydro-5H-cyclopenta[b]pyridin-4-yl)oxy]methyl}-3-[2-(morpholin-4-yl)ethoxy]propyl)-2′,3′-dihydrospiro[cyclohexane-1,1′-indene]-4-carboxylic acid]
17 | 6.36 nM | Cc1cnc2c(c1OC[C@H](C)C[C@H]1Cc3ccccc3[C@]13CC[C@@](Nc1cccc(Cl)c1)(C(=O)O)CC3)CCCC2 [Example 649, (1r,2′S,4S)-4-(3-chloroanilino)-2′-{(2R)-2-methyl-3-[(3-methyl-5,6,7,8-tetrahydroquinolin-4-yl)oxy]propyl}-2′,3′-dihydrospiro[cyclohexane-1,1′-indene]-4-carboxylic acid]

same assay, conditions: @ 10 μM, read-out: Mcl-1 inhibition, % at a single concentration

Row | inhibition at 10 µM | Structure (SMILES)
18 | 9.5% | CC(C)OC(=O)[C@]1(Nc2cccc(Cl)c2)CC[C@@]2(CC1)c1cc3c(cc1C[C@@H]2C[C@@H](C)COc1ccnc2c1[C@H](C)CCC2)OCO3 [Example 931, propan-2-yl (1r,4S,6′S)-4-(3-chloroanilino)-6′-[(2R)-2-methyl-3-{[(5R)-5-methyl-5,6,7,8-tetrahydroquinolin-4-yl]oxy}propyl]-6′,7′-dihydro-2′H-spiro[cyclohexane-1,5′-indeno[5,6-d][1,3]dioxole]-4-carboxylate]

same assay, conditions: Ki determined from IC50

Row | Ki | Structure (SMILES)
19 | 44.9 nM | C[C@@H](COc1cccc2[nH]ccc12)CN1Cc2ccccc2[C@]12CC[C@@](Nc1cccc(Cl)c1)(C(=O)O)CC2 [Example 39, (1s,4S)-4-(3-chloroanilino)-2′-{(2R)-3-[(1H-indol-4-yl)oxy]-2-methylpropyl}-2′,3′-dihydrospiro[cyclohexane-1,1′-isoindole]-4-carboxylic acid]
20 | 424 nM | O=C(O)[C@]1(Nc2cccc(C(F)(F)F)c2)CC[C@]2(CC1)C(Br)=Cc1ccccc12 [Example 85, (1s,4s)-2′-bromo-4-[3-(trifluoromethyl)anilino]spiro[cyclohexane-1,1′-indene]-4-carboxylic acid]
21 | 57.4 nM | Cc1cc2c(cc1C)[C@]1(CC[C@@](Nc3cccc(Cl)c3)(C(=O)O)CC1)C(Br)=C2 [Example 140, (1s,4s)-2′-bromo-4-(3-chloroanilino)-5′,6′-dimethylspiro[cyclohexane-1,1′-indene]-4-carboxylic acid]
